Several values for one entry are separate records, joined by “and”; a condition that tells them apart may be missing. Equal entries are not always repeated.

The term IC50 denotes the concentration that gives 50% inhibition. Read a high IC50 as weaker potency in that assay.

The target in the test is T1, Thyroid hormone receptor beta (Homo sapiens, UniProt P10828).
T1 sequence (P10828 whole entry): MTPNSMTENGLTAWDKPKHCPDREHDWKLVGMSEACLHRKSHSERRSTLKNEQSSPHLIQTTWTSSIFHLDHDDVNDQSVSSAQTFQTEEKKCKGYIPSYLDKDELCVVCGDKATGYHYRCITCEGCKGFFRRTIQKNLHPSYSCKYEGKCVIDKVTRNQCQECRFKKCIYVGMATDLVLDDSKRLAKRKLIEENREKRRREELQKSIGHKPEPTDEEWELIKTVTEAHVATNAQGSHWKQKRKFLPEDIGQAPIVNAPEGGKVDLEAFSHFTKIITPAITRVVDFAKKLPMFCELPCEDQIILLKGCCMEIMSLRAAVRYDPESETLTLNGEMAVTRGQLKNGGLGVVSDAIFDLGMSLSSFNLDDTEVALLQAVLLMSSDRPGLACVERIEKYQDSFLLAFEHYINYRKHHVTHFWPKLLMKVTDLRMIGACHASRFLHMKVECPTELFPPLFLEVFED
As to `COc1ccccc1CCNC(=O)c1cc(Oc2c(Br)cc(CC(=O)O)cc2Br)ccc1O`, the 50% inhibitory concentration (IC50) is 0.468 nM. Compound `Cc1cc(-n2ncc(=O)[nH]c2=O)cc(Cl)c1Oc1ccc(O)c(S(=O)(=O)N2CCOCC2)c1` showed an IC50 of 75.9 nM. Consider `O=c1cnn(-c2cc(Cl)c(Oc3ccc(O)c(S(=O)(=O)NC4CCCCC4)c3)c(Cl)c2)c(=O)[nH]1`, for which the IC50 is 1.29 nM. `O=c1cnn(-c2cc(Cl)c(Oc3ccc(O)c(S(=O)(=O)N4C5CCC4CC4(C5)OCCO4)c3)c(Cl)c2)c(=O)[nH]1` gave a half-inhibitory concentration (IC50) of 0.871 nM. To `O=C(c1cc(Oc2c(Cl)cc(-n3ncc(=O)[nH]c3=O)cc2Cl)ccc1O)N1CCOCC1` belongs 2 nM; to `O=c1cnn(-c2cc(Cl)c(Oc3ccc(O)c(S(=O)(=O)N4CCCCC4)c3)c(Cl)c2)c(=O)[nH]1`, 0.0562 nM.

Consider `CC1(C)C2CCC(NC(=O)c3cc(Oc4c(Cl)cc(-n5ncc(=O)[nH]c5=O)cc4Cl)ccc3O)C1C2` (stereo in doubt; 43), for which half-maximal inhibition (IC50) required 0.112 nM. The result for `O=C(NC1CCC1)c1cc(Oc2c(Cl)cc(-n3ncc(=O)[nH]c3=O)cc2Cl)ccc1O` reads 1.78 nM; that for `O=c1cnn(-c2cc(Cl)c(Oc3ccc(O)c(S(=O)(=O)NC4CCC4)c3)c(Cl)c2)c(=O)[nH]1`, 1.12 nM. In turn, `O=C(NC1CCCCC1)c1cc(Oc2c(Cl)cc(-n3ncc(=O)[nH]c3=O)cc2Cl)ccc1O` had an IC50 of 0.195 nM. The result for `O=C(c1cc(Oc2c(Cl)cc(-n3ncc(=O)[nH]c3=O)cc2Cl)ccc1O)N1CCCCC1` reads 1.74 nM and 5.25 nM.

With `O=C(O)Cc1cc(Br)c(Oc2ccc(O)c(C(=O)NCC(c3ccccc3)c3ccccc3)c2)c(Br)c1`, the 50% inhibitory concentration (IC50) was 37.2 nM. Take `CC1(C)C2CCC1(C)[C@H](NC(=O)c1cc(Oc3c(Cl)cc(-n4ncc(=O)[nH]c4=O)cc3Cl)ccc1O)C2` (some centres not stated): the IC50 was 1.02 nM.

`O=c1cnn(-c2cc(Cl)c(Oc3ccc(O)c(S(=O)(=O)Nc4ccccc4)c3)c(Cl)c2)c(=O)[nH]1` gave an IC50 of 0.282 nM. The result for `COc1ccc(CCNC(=O)c2cc(Oc3c(Br)cc(CC(=O)O)cc3Br)ccc2O)cc1` reads 4.79 nM. To `O=c1cnn(-c2cc(Cl)c(Oc3ccc(O)c(S(=O)(=O)N4CCc5ccccc54)c3)c(Cl)c2)c(=O)[nH]1` belongs 0.646 nM. The result for `O=c1cnn(-c2cc(Cl)c(Oc3ccc(O)c(S(=O)(=O)N4C5CCC4CC4(CCCO4)C5)c3)c(Cl)c2)c(=O)[nH]1` (configuration not stated) reads 0.776 nM; that for `Cc1cc(-n2ncc(=O)[nH]c2=O)cc(Cl)c1Oc1ccc(O)c(S(=O)(=O)N2CCCCC2)c1`, 0.363 nM. Take `CC1(C)C2CCC(NC(=O)c3cc(Oc4c(Cl)cc(-n5ncc(=O)[nH]c5=O)cc4Cl)ccc3O)C1C2` (stereo in doubt; 42): the half-maximal inhibitory concentration (IC50) was 0.166 nM. The result for `COc1cccc(CCNC(=O)c2cc(Oc3c(Br)cc(CC(=O)O)cc3Br)ccc2O)c1` reads 8.51 nM. To `O=C(O)Cc1cc(Br)c(Oc2ccc(O)c(C(=O)NC(=O)c3ccccc3)c2)c(Br)c1` belongs 4.17 nM.

In turn, `Cc1cc(-n2ncc(=O)[nH]c2=O)cc(C)c1Oc1ccc(O)c(S(=O)(=O)N2CCCCC2)c1` showed an IC50 of 1.29 nM.

Source of the values: ChEMBL document CHEMBL1149596, “QSAR study of selective ligands for the thyroid hormone receptor beta” (Bioorg Med Chem, 2007).
